SMILES strings stand for the structures.

Broadly, the melting point is the temperature, or range, at which the solid turns liquid.

As for `O=C(Nc1ccc(N2CC(O)C2)nc1)c1cc2cc(C(F)(F)F)ccc2n1Cc1cccc(F)c1` [Compound 29, N-[6-(3-hydroxyazetidin-1-yl)pyridin-3-yl]-1-(3-fluorobenzyl)-5-trifluoromethyl-1H-indole-2-carboxamide], the melting point fell in the range of 194 to 196 °C.

The compound `Cc1ccc2cc(C(=O)Nc3ccc(N4CCC4)nc3)n(Cc3cccc(F)c3)c2c1` [Compound 46, N-[6-(azetidin-1-yl)pyridin-3-yl]-6-methyl-1-(3-fluorobenzyl)-1H-indole-2-carboxamide] returned a melting point of 228 to 230 °C.

`O=C(Nc1ccc(N2CCC2)nc1)c1cc2c(F)cccc2n1Cc1cccc(F)c1` [Compound 38, N-[6-(azetidin-1-yl)pyridin-3-yl]-4-fluoro-1-(3-fluorobenzyl)-1H-indole-2-carboxamide] came in with a melting point of 214 to 216 °C.

Consider `O=C(Nc1ccc(N2CCC2)nc1)c1cc2c(Cl)cccc2n1Cc1cccc(F)c1` [Compound 41, N-[6-(azetidin-1-yl)pyridin-3-yl]-4-chloro-1-(3-fluorobenzyl)-1H-indole-2-carboxamide], for which the melting point lay in the range of 226 to 228 °C.

In turn, `CC(C)(C)c1ccc2cc(C(=O)Nc3ccc(N4CCC4)nc3)n(Cc3cccc(F)c3)c2c1` [Compound 33, N-[6-(azetidin-1-yl)pyridin-3-yl]-6-tert-butyl-1-(3-fluorobenzyl)-1H-indole-2-carboxamide] returned a melting point of 204 to 206 °C.

In turn, `CN(C)c1ccc2cc(C(=O)Nc3ccc(N4CCC4)nc3)n(Cc3cccc(F)c3)c2c1` [Compound 36, N-[6-(azetidin-1-yl)pyridin-3-yl]-6-dimethylamino-1-(3-fluorobenzyl)-1H-indole-2-carboxamide] returned a melting point of 256 to 258 °C.

Turning to `CSc1ccc2cc(C(=O)Nc3ccc(N4CCC4)nc3)n(Cc3cccc(F)c3)c2c1` [Compound 37, N-[6-(azetidin-1-yl)pyridin-3-yl]-6-methylthio-1-(3-fluorobenzyl)-1H-indole-2-carboxamide], the melting point lay within 206 to 208 °C.

Consider `CC(C)c1ccc2cc(C(=O)Nc3ccc(N4CCC4)nc3)n(Cc3cccc(F)c3)c2c1` [Compound 51, N-[6-(azetidin-1-yl)pyridin-3-yl]-6-isopropyl-1-(3-fluorobenzyl)-1H-indole-2-carboxamide], for which the melting point lay in the range of 184 to 186 °C.

As for `O=C(Nc1ccc(N2CC3CCC3C2)nc1)c1cc2cc(F)ccc2n1Cc1cccc(F)c1` (stereo not shown) [Compound 22, N-[6-(3-azabicyclo[3.2.0]hept-3-yl)pyridin-3-yl]-5-fluoro-1-(3-fluorobenzyl)-1H-indole-2-carboxamide], the melting point lay within 163 to 165 °C.

`O=C(Nc1ccc(N2CCC2)nc1)c1cc2ccccc2n1Cc1cccc(F)c1` [Compound 44, N-[6-(azetidin-1-yl)pyridin-3-yl]-1-(3-fluorobenzyl)-1H-indole-2-carboxamide] had a melting point of 328 to 330 °C.

As to `CCc1ccc2cc(C(=O)Nc3ccc(N4CCC4)nc3)n(Cc3cccc(F)c3)c2c1` [Compound 50, N-[6-(azetidin-1-yl)pyridin-3-yl]-6-ethyl-1-(3-fluorobenzyl)-1H-indole-2-carboxamide], the melting point lay in the range of 196 to 198 °C.

Turning to `O=C(Nc1ccc(N2CCC2)nc1)c1cc2cccc(F)c2n1Cc1cccc(F)c1` [Compound 39, N-[6-(azetidin-1-yl)pyridin-3-yl]-7-fluoro-1-(3-fluorobenzyl)-1H-indole-2-carboxamide], the melting point was 244 to 246 °C.

The compound `CC(C)Oc1ccc2cc(C(=O)Nc3ccc(N4CCC4)nc3)n(Cc3cccc(F)c3)c2c1` [Compound 34, N-[6-(azetidin-1-yl)pyridin-3-yl]-6-isopropyloxy-1-(3-fluorobenzyl)-1H-indole-2-carboxamide] showed a melting point of 198 to 200 °C.

On to `O=C(Nc1cnc(N2CCCC2)cc1C(F)(F)F)c1cc2cc(F)ccc2n1Cc1cccc(F)c1` [Compound 53, N-[6-(pyrrolidin-1-yl)-4-(trifluoromethyl)pyridin-3-yl]-5-fluoro-1-(3-fluorobenzyl)-1H-indole-2-carboxamide], for which the melting point lay in the range of 170 to 171 °C.

The compound `O=C(Nc1ccc(N2CCC2)nc1)c1cc2ccc(Cl)cc2n1Cc1cccc(F)c1` [Compound 42, N-[6-(azetidin-1-yl)pyridin-3-yl]-6-chloro-1-(3-fluorobenzyl)-1H-indole-2-carboxamide] gave a melting point of 218 to 220 °C.

For the compound `Cc1cccc2c1cc(C(=O)Nc1ccc(N3CCC3)nc1)n2Cc1cccc(F)c1` [Compound 45, N-[6-(azetidin-1-yl)pyridin-3-yl]-4-methyl-1-(3-fluorobenzyl)-1H-indole-2-carboxamide], the melting point fell in the range of 246 to 248 °C.

Compound `Cc1cc(C)c2cc(C(=O)Nc3ccc(N4CCC4)nc3)n(Cc3cccc(F)c3)c2c1` [Compound 32, N-[6-(azetidin-1-yl)pyridin-3-yl]-4,6-dimethyl-1-(3-fluorobenzyl)-1H-indole-2-carboxamide] returned a melting point of 234 to 236 °C.

`CC(C)(C)c1ccc2c(c1)cc(C(=O)Nc1ccc(N3CCC3)nc1)n2Cc1cccc(F)c1` [Compound 49, N-[6-(azetidin-1-yl)pyridin-3-yl]-5-tert-butyl-1-(3-fluorobenzyl)-1H-indole-2-carboxamide] registered a melting point of 212 to 214 °C.

Turning to `CS(=O)(=O)c1ccc2c(c1)cc(C(=O)Nc1ccc(N3CCC3)nc1)n2Cc1cccc(F)c1` [Compound 35, N-[6-(azetidin-1-yl)pyridin-3-yl]-5-methylsulphonyl-1-(3-fluorobenzyl)-1H-indole-2-carboxamide], the melting point lay within 258 to 260 °C.

For the compound `O=C(Nc1ccc(N2CC(O)C2)nc1)c1cc2ccc(C(F)(F)F)cc2n1Cc1cccc(F)c1` [Compound 30, N-[6-(3-hydroxyazetidin-1-yl)pyridin-3-yl]-1-(3-fluorobenzyl)-6-trifluoromethyl-1H-indole-2-carboxamide], the melting point lay within 253 to 255 °C.

As to `O=C(Nc1ccc(N2CCC2)nc1)c1cc2cc(F)ccc2n1Cc1ccccc1` [Compound 31, N-[6-(azetidin-1-yl)pyridin-3-yl]-5-fluoro-1-(benzyl)-1H-indole-2-carboxamide], the melting point fell in the range of 208 to 210 °C.

`CC(C)c1ccc2c(c1)cc(C(=O)Nc1ccc(N3CCC3)nc1)n2Cc1cccc(F)c1` [Compound 48, N-[6-(azetidin-1-yl)pyridin-3-yl]-5-isopropyl-1-(3-fluorobenzyl)-1H-indole-2-carboxamide] had a melting point of 204 to 206 °C.

`O=C(Nc1ccc(N2CCC2)nc1)c1cc2ccc(F)cc2n1Cc1cccc(F)c1` [Compound 40, N-[6-(azetidin-1-yl)pyridin-3-yl]-6-fluoro-1-(3-fluorobenzyl)-1H-indole-2-carboxamide] came in with a melting point of 210 to 212 °C.

`O=C(Nc1ccc(N2CCC2)nc1)c1cc2cc(C(F)(F)F)ccc2n1Cc1cccc(F)c1` [Compound 25, N-[6-(azetidin-1-yl)pyridin-3-yl]-5-trifluoromethyl-1-(3-fluorobenzyl)-1H-indole-2-carboxamide] came in with a melting point of 222 to 224 °C.

Regarding `COc1cc(N2CCCC2)ncc1NC(=O)c1cc2cc(F)ccc2n1Cc1ccncc1` [Compound 18, N-[4-methoxy-6-(pyrrolidin-1-yl)pyridin-3-yl]-5-fluoro-1-[(pyridin-4-yl)methyl]-1H-indole-2-carboxamide], the melting point was in the range of 225 to 226 °C.

In the case of `O=C(Nc1ccc(N2CCC2)nc1)c1cc2ccc(C(F)(F)F)cc2n1Cc1cccc(F)c1` [Compound 52, N-[6-(azetidin-1-yl)pyridin-3-yl]-6-trifluoromethyl-1-(3-fluorobenzyl)-1H-indole-2-carboxamide], the melting point lay in the range of 220 to 222 °C.

Compound `O=C(Nc1ccc(N2CC(O)C2)nc1)c1cc2cc(F)ccc2n1Cc1cccc(F)c1` [Compound 24, N-[6-(3-hydroxyazetidin-1-yl)pyridin-3-yl]-5-fluoro-1-(3-fluorobenzyl)-1H-indole-2-carboxamide] showed a melting point of 199 to 200 °C.

As to `Cc1ccc2c(c1)cc(C(=O)Nc1ccc(N3CCC3)nc1)n2Cc1cccc(F)c1` [Compound 47, N-[6-(azetidin-1-yl)pyridin-3-yl]-5-methyl-1-(3-fluorobenzyl)-1H-indole-2-carboxamide], the melting point is 236 to 238 °C.

Consider `Cc1cc(Cn2c(C(=O)Nc3ccc(N4CCCC4)nc3)cc3cc(F)ccc32)ccn1` [Compound 19, N-[6-(pyrrolidin-1-yl)pyridin-3-yl]-5-fluoro-1-[(2-methylpyridin-4-yl)methyl]-1H-indole-2-carboxamide], for which the melting point lay in the range of 213 to 215 °C.

`O=C(Nc1ccc(N2CCC2)nc1)c1cc2cc(F)ccc2n1Cc1ccncc1` [Compound 26, N-[6-(azetidin-1-yl)pyridin-3-yl]-1-[(pyridin-4-yl)methyl]-5-fluoro-1H-indole-2-carboxamide] yielded a melting point of 212 to 214 °C.

In turn, `O=C(Nc1ccc(N2CCC2)nc1)c1cc2cc(Cl)ccc2n1Cc1cccc(F)c1` [Compound 43, N-[6-(azetidin-1-yl)pyridin-3-yl]-5-chloro-1-(3-fluorobenzyl)-1H-indole-2-carboxamide] had a melting point of 226 to 228 °C.

The values are drawn from patent US8586573B2, “N-(Aminoheteroaryl)-1H-indole-2-carboxamide derivatives, and preparation and therapeutic application thereof” (Sanofi, priority 2006, dated 2013).
